Experimental data as given in the NIST ThermoML archive (doi:10.1021/je700063c).
Numbers after ± are expanded uncertainties.

Conditions: Liquid; for mass density: 298.15 K, 101.33 kPa, Pycnometric method; for Normal boiling temperature: Distillation

Compound | mass density | Normal boiling temperature
CC(C)CO [2-methyl-1-propanol] | 797.8 ± 0.7 kg/m3 | 107.77 ± 0.1 °C
CCCCO [butan-1-ol] | 805.8 ± 0.7 kg/m3 | –
CCC(C)O (stereo not given) [butan-2-ol] | 802.4 ± 0.7 kg/m3 | 99.46 ± 0.1 °C
